According to article PMC2363166, “Water-soluble aluminium phthalocyanine–polymer conjugates for PDT: photodynamic activities and pharmacokinetics in tumour-bearing mice” (British Journal of Cancer, 1999):

Tests used:
[1] = test system: EMT-6 mouse mammary tumour cells; assay: Cellular photoinactivation, MTT cell survival after red light; type: cell-based; conditions: 1% FBS, red light 660-700 nm
From the text: Among the second-generation photosensitizers (PS) developed for the treatment of neoplastic diseases by photodynamic therapy (PDT) (Kessel, 1996; Ochsner, 1997), metallo-phthalocyanines (MePc) have been proposed (Spikes, 1986; van Lier, 1990; Rosenthal, 1991) as an alternative to Photofrin (PII), the only PS currently approved for clinical use. Their stronger absorption in the red part of the spectrum (molar extinction coefficient, […] at 675 nm), where the depth of light penetration in tissues is twice that obtained at 630 nm with PII (Svaasand, 1984), together with their chemical homogeneity and their lower potential to induce cutaneous photosensitivity (Roberts et al, 1989; Tralau et al, 1989) are major advantages over PII. […] The potential of the water-soluble aluminium sulphophthalocyanine (AlPcS) to generate activated oxygen species (Sharman et al, 1999) and to induce a photo- dynamic response in vivo has been widely evaluated, and a mixture of AlPcS bearing 2-4 sulphonato groups per Pc (Photosense) is used extensively and successfully in clinical PDT in Russia (Zharkova et al, 1994). […] Their photodynamic activities were evaluated in vitro against the EMT-6 mouse mammary tumour cells and in vivo against the EMT-6 and the colon carcinoma Colo-26 tumours implanted intradermally in Balb/c mice. […]

Colo-26 tumour = assay: Photodynamic therapy of the Colo-26 tumour implanted i.d. in Balb/c mice; type: in vivo; parameters: Oedema observed 24 h after PDT: key to the marks not given beside the values
From the text: (§1) Among the second-generation photosensitizers (PS) developed for the treatment of neoplastic diseases by photodynamic therapy (PDT) (Kessel, 1996; Ochsner, 1997), metallo-phthalocyanines (MePc) have been proposed (Spikes, 1986; van Lier, 1990; Rosenthal, 1991) as an alternative to Photofrin (PII), the only PS currently approved for clinical use. Their stronger absorption in the red part of the spectrum (molar extinction coefficient, […] at 675 nm), where the depth of light penetration in tissues is twice that obtained at 630 nm with PII (Svaasand, 1984), together with their chemical homogeneity and their lower potential to induce cutaneous photosensitivity (Roberts et al, 1989; Tralau et al, 1989) are major advantages over PII. Unsubstituted MePc are not soluble in physiological solvents and their in vivo administration relies upon their incorporation into carriers, such as the liposomal formulation of ZnPc (Isele et al, 1995), or their chemical conversion into water-soluble dyes by the attachment of selected substituents onto the benzene rings of the macrocycle. An inverse relationship was related between the degree of substitution by sulphonato groups of MePc and their hydrophobicity and photodynamic activities, both at the cellular level and in tumour-bearing mice (Brasseur et al, 1987, 1988; Paquette et al, 1988; Berg et al, 1989; Chan et al, 1990, 1991; Margaron et al, 1996a). The potential of the water-soluble aluminium sulphophthalocyanine (AlPcS) to generate activated oxygen species (Sharman et al, 1999) and to induce a photo- dynamic response in vivo has been widely evaluated, and a mixture of AlPcS bearing 2-4 sulphonato groups per Pc (Photosense) is used extensively and successfully in clinical PDT in Russia (Zharkova et al, 1994). […] The unsubstituted AlClPc has, however, attracted less attention even though it has been shown that this compound formulated as a Cremophor emulsion was preferentially retained by a gliosarcoma and was able to induce tumour necrosis in this model (Dereski et al, 1994). […] However, Cremophor oil is known to induce unwanted side-effects in patients (Dye and Watkins, Water-soluble aluminium phthalocyaninepolymer conjugates for PDT: photodynamic activities and pharmacokinetics in tumour-bearing mice N Brasseur, R Ouellet, C La Madeleine and JE van Lier MRC Group in the Radiation Sciences, Faculty of Medicine, Universite de Sherbrooke, Sherbrooke, Quebec, J1H 5N4, Canada Summary The potential use of unsubstituted aluminium phthalocyanine (AlClPc) as a sensitizer for photodynamic therapy (PDT) of cancer has not been fully exploited in spite of its higher efficiency as compared to the sulphonated derivatives. This is largely due to the strong hydrophobic character of AlClPc which renders the material difficult to formulate for in vivo administration. We prepared two water-soluble derivatives of AlClPc by axial coordination of polyethyleneglycol (PEG, MW 2000) or polyvinylalcohol (PVA, MW 13 000-23 000) to the central aluminium ion. Their photodynamic activities were evaluated in vitro against the EMT-6 mouse mammary tumour cells and in vivo against the EMT-6 and the colon carcinoma Colo-26 tumours implanted intradermally in Balb/c mice. Pharmacokinetics were studied in the EMT-6 tumour-bearing mice. […] All three dye preparations induced complete EMT-6 tumour regression in 75-100% of animals at a low drug dose ([…] ) following PDT (400 J cm-2 , 650-700 nm) at 24 h pi. Complete tumour regression in the Colo-26 tumour model was obtained in 30% of mice at a dose of […] . In the non-cured animals, AlPc-PVA induced the most significant tumour growth delay. […] Moreover, in the case of the polyvinylalcohol derivative, axial coordination confers advantageous pharmacokinetics to AlPc, which makes this photosensitizer a valuable, water soluble candidate drug for clinical PDT of cancer. […]

EMT-6 tumour = conditions: 0.25 μmol kg-1 i.v., PDT 24 h p.i., 400 J cm-2, ref Chan et al (1997); cited from earlier work
[2] = Biodistribution and plasma clearance after i.v. injection in EMT-6 tumour-bearing mice; type: in vivo
From the text: as §1

[3] = Colo-26 tumour, 2 μmol kg-1 i.v., PDT 24 h p.i., 400 J cm-2
[4] = 6 h after i.v. 2 μmol kg-1, n = 4
[5] = 24 h after i.v. 2 μmol kg-1, n = 4
[6] = 48 h after i.v. 2 μmol kg-1, n = 4
[7] = 168 h after i.v. 2 μmol kg-1, n = 4

[Cl][Al]1[n]2c3c4ccccc4c2N=C2N=C(N=c4c5ccccc5c([n]41)=NC1=NC(=N3)c3ccccc31)c1ccccc12 [AlClPc, aluminium phthalocyanine]
light dose required to kill 90% of cells (LD90) ([1]; 1 h incubation, 10 mW cm-2, max 36 J cm-2): 13.5 J cm-2 | light dose required to kill 90% of cells (LD90) ([1]; 24 h incubation, 10 mW cm-2): 4.5 J cm-2 | damage to leg muscle (Colo-26 tumour; 2 μmol kg-1, PDT 24 h p.i.): did not induce damage to leg muscle | tumour regrowth delay relative to controls (Colo-26 tumour; Colo-26 tumour, 2 μmol kg-1, non-cured mice): 1.5 times that of the controls | Tumour response, Regression (flat and necrotic within 3-5 days after PDT) (Colo-26 tumour; Colo-26 tumour, 2 μmol kg-1 i.v., PDT 24 h p.i., 200 mW cm-2, 400 J cm-2): 80 % of mice | Oedema observed 24 h after PDT (Colo-26 tumour; [3]): ++ | Tumour response, Cure (complete tumour regression at 30 days minimum) (Colo-26 tumour; [3]): 30 % of mice | Regrowth to 20 Vo (time for tumour to reach 20 times the volume at the time of PDT) (Colo-26 tumour; Colo-26 tumour, 2 μmol kg-1 i.v., PDT 24 h p.i., non-cured mice only, controls 15.0 (0.3)): 23.5 (2.1) days (s.e.m.) | Oedema observed 24 h after PDT (EMT-6 tumour): + | Tumour response, Cure (complete tumour regression at 21 days) (EMT-6 tumour): 100 % of mice | Tumour response, Regression (flat and necrotic within 3-5 days after PDT) (EMT-6 tumour): 100 % of mice | retention by the liver ([2]; 1-week pi, i.v. 2 μmol kg-1): 73% | Tumour-to-plasma ratio [2, 4]: 0.4 | Tumour-to-skin ratio [2, 4]: 3.5 | Tumour-to-tumour skin ratio [2, 4]: 1.0 | Tumour-to-muscle ratio [2, 5]: 16.9 | Tumour-to-plasma ratio [2, 5]: >> | Tumour-to-skin ratio [2, 5]: 5.3 | Tumour-to-tumour skin ratio [2, 5]: 1.0 | Tumour-to-muscle ratio [2, 6]: 19.5 | Tumour-to-plasma ratio [2, 6]: >> | Tumour-to-skin ratio [2, 6]: 3.3 | Tumour-to-tumour skin ratio [2, 6]: 0.7 | Tumour-to-muscle ratio [2, 7]: >> | Tumour-to-plasma ratio [2, 7]: >> | Tumour-to-skin ratio [2, 7]: 2.0 | Tumour-to-tumour skin ratio [2, 7]: 0.9 | plasma half-life ([2]; i.v. 2 μmol kg-1, EMT-6 tumour-bearing mice): 2.6 h
